Converted amounts (≈) assume the structure as drawn.

This passage reports MIC results from patent publication US12145915B1 (priority 2023, dated 2024).

For assay [1], the system named is MDR strain of Mycobacterium tuberculosis. Kind of assay: microbe, parasite or virus in culture. It counts as cell-based. Conditions: read-out: Anti-tubercular activity against Mycobacterium tuberculosis (μg/mL) MDR (MIC).
In assay [2] the test system is XDR strain of Mycobacterium tuberculosis. Kind of assay: microbe, parasite or virus in culture. Type of assay: cell-based. The note with it: read-out: Anti-tubercular activity against Mycobacterium tuberculosis (μg/mL) XDR (MIC).

Take `Cc1nc(-c2ccc(OCC(C)C)c(C#N)c2)sc1C(=O)N/N=C/c1ccc(F)c(Oc2ccccc2)c1` [KNV-TZL1, (E)-2-(3-Cyano-4-isobutoxyphenyl)-N-(4-fluoro-3-phenoxybenzylidene)-4-methylthiazole-5-carbohydrazide]: the results for the MIC in assay [1] and in assay [2] were 32 µg/mL (≈ 60.5 µM) and 128 µg/mL (≈ 242 µM), respectively.

On to `COc1cc(/C=N/NC(=O)c2sc(-c3ccc(OCC(C)C)c(C#N)c3)nc2C)ccc1O` [KNV-TZL2, (E)-2-(3-Cyano-4-isobutoxyphenyl)-N-(4-hydroxy-3-methoxybenzylidene)-4-methylthiazole-5-carbohydrazide], for which the MIC in assay [1] and in assay [2] was 64 µg/mL (≈ 138 µM) throughout.
